Experiments:
[1] = tested on: velvetleaf; experiment: Test Example 5: herbicidal effect by foliage application, plastic box (Table 20, symbol M); format: in vivo, velvetleaf (Abutilon theophrasti); conditions: foliage application, 320 g/ha, evaluated 3 weeks after application
How it was run: (§1)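 Plants were sown into sterilized diluvial soil under about 1.5 cm cover and kept in a greenhouse at 25° C. to 30° C. Fourteen days on, foliage received an even spray of the diluted emulsion. Herbicidal or crop effect was judged three weeks afterwards.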

[2] = tested on: persian speedwell; experiment: Test Example 4: herbicidal effect by soil treatment (Table 19, symbol R); format: in vivo, Persian speedwell (Veronica persica); conditions: amount of applied herbicide 320 g/ha
How it was run: (§2)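 Pre-emergence style soil spray: seeds under ~1.5 cm sterilized diluvial soil received a uniform coat of emulsion diluted to the predetermined herbicide amount. Greenhouse 25–30° C; readout at week three on previously defined criteria.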

[3] = tested on: barnyard grass; experiment: Test Example 3: herbicidal effect by foliage application, Wagner pot (Table 18, symbol H); format: in vivo, barnyard grass (Echinochloa crus-galli); conditions: amount of applied herbicide 320 g/ha
How it was run: (§3)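 Plants were sown in alluvial soil held under 0.1–0.5 cm standing water and grown 14 days in a greenhouse at 25–30 °C. An emulsifiable formulation, water-diluted to the set dose, was then sprayed onto the foliage, and effects were scored three weeks later using previously defined criteria.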

[4] = tested on: blackgrass; experiment: Test Example 5: herbicidal effect by foliage application, plastic box (Table 20, symbol J); format: in vivo, blackgrass (Alopecurus myosuroides); conditions: foliage application, 320 g/ha, evaluated 3 weeks after application
How it was run: as §1

[5] = tested on: Japanese bulrush; experiment: Test Example 1: herbicidal activity, application before weed generation under submerged conditions (Table 16, symbol B); format: in vivo, Japanese bulrush (Schoenoplectus juncoides); conditions: amount of applied herbicide 320 g/ha
How it was run: (§4)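 Emulsion formulation, water-diluted to set dose, was put onto the flooded surface (4 cm depth, alluvial soil) the same day weeds were sown and 2.5-leaf rice transplanted. After 3 weeks at 25-30 °C under glass, each species was rated 0 (≤5% kill) to 5 (≥90% kill).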

[6] = tested on: late watergrass; experiment: Test Example 1: herbicidal activity, application before weed generation under submerged conditions (Table 16, symbol A); format: in vivo, late watergrass (Echinochloa oryzicola); conditions: amount of applied herbicide 320 g/ha
How it was run: as §4

[7] = tested on: wild oat; experiment: Test Example 5: herbicidal effect by foliage application, plastic box (Table 20, symbol I); format: in vivo, wild oat (Avena fatua); conditions: foliage application, 320 g/ha, evaluated 3 weeks after application
How it was run: as §1

[8] = tested on: Italian ryegrass; experiment: Test Example 4: herbicidal effect by soil treatment (Table 19, symbol K); format: in vivo, Italian ryegrass (Lolium multiflorum); conditions: amount of applied herbicide 320 g/ha
How it was run: as §2

[9] = tested on: rice flat sedge; experiment: Test Example 3: herbicidal effect by foliage application, Wagner pot (Table 18, symbol E); format: in vivo, rice flat sedge (Cyperus iria); conditions: amount of applied herbicide 320 g/ha
How it was run: as §3

[10] = tested on: barnyard grass; experiment: Test Example 5: herbicidal effect by foliage application, plastic box (Table 20, symbol H); format: in vivo, barnyard grass (Echinochloa crus-galli); conditions: foliage application, 320 g/ha, evaluated 3 weeks after application
How it was run: as §1

[11] = tested on: redroot pigweed; experiment: Test Example 5: herbicidal effect by foliage application, plastic box (Table 20, symbol N); format: in vivo, redroot pigweed (Amaranthus retroflexus); conditions: foliage application, 320 g/ha, evaluated 3 weeks after application
How it was run: as §1

[12] = tested on: windgrass; experiment: Test Example 5: herbicidal effect by foliage application, plastic box (Table 20, symbol L); format: in vivo, windgrass (Apera spica-venti); conditions: foliage application, 320 g/ha, evaluated 3 weeks after application
How it was run: as §1

[13] = tested on: green foxtail; experiment: Test Example 4: herbicidal effect by soil treatment (Table 19, symbol G); format: in vivo, green foxtail (Setaria viridis); conditions: amount of applied herbicide 320 g/ha
How it was run: as §2

[14] = tested on: velvetleaf; experiment: Test Example 4: herbicidal effect by soil treatment (Table 19, symbol M); format: in vivo, velvetleaf (Abutilon theophrasti); conditions: amount of applied herbicide 320 g/ha
How it was run: as §2

[15] = tested on: green foxtail; experiment: Test Example 5: herbicidal effect by foliage application, plastic box (Table 20, symbol G); format: in vivo, green foxtail (Setaria viridis); conditions: foliage application, 320 g/ha, evaluated 3 weeks after application
How it was run: as §1

[16] = tested on: southern crabgrass; experiment: Test Example 5: herbicidal effect by foliage application, plastic box (Table 20, symbol F); format: in vivo, southern crabgrass (Digitaria ciliaris); conditions: foliage application, 320 g/ha, evaluated 3 weeks after application
How it was run: as §1

[17] = tested on: southern crabgrass; experiment: Test Example 4: herbicidal effect by soil treatment (Table 19, symbol F); format: in vivo, southern crabgrass (Digitaria ciliaris); conditions: amount of applied herbicide 320 g/ha
How it was run: as §2

[18] = tested on: windgrass; experiment: Test Example 4: herbicidal effect by soil treatment (Table 19, symbol L); format: in vivo, windgrass (Apera spica-venti); conditions: amount of applied herbicide 320 g/ha
How it was run: as §2

Structure (SMILES)	M (velvetleaf) herbicidal effect grade [1]	R: persian speedwell, herbicidal effect grade [2]	Herbicidal effect on H (barnyard grass), foliage application [3]	J (blackgrass) herbicidal effect grade [4]	Herbicidal effect, B: Japanese bulrush [5]	Herbicidal effect, A: late watergrass [6]	I (wild oat) herbicidal effect grade [7]	K: Italian ryegrass, herbicidal effect grade [8]	Herbicidal effect on E (rice flat sedge), foliage application [9]	H (barnyard grass) herbicidal effect grade [10]	N (redroot pigweed) herbicidal effect grade [11]	L (windgrass) herbicidal effect grade [12]	G: green foxtail, herbicidal effect grade [13]	M: velvetleaf, herbicidal effect grade [14]	G (green foxtail) herbicidal effect grade [15]	F (southern crabgrass) herbicidal effect grade [16]	F: southern crabgrass, herbicidal effect grade [17]	L: windgrass, herbicidal effect grade [18]
Cc1ccc2oc(-c3ccc(OCC(C)C)cc3)c(-c3c(O)c(C)nn(C)c3=O)c2c1 [9-051]	5 (Herbicidal rate of 90% or more (almost completely withered))	5 (Herbicidal rate of 90% or more (almost completely withered))	5 (Herbicidal rate of 90% or more (almost completely withered))	5 (Herbicidal rate of 90% or more (almost completely withered))	5 (Herbicidal rate of 90% or more (almost completely withered))	5 (Herbicidal rate of 90% or more (almost completely withered))	1 (Herbicidal rate of 5% or more and less than 20%)	5 (Herbicidal rate of 90% or more (almost completely withered))	4 (Herbicidal rate of 70% or more and less than 90%)	4 (Herbicidal rate of 70% or more and less than 90%)	5 (Herbicidal rate of 90% or more (almost completely withered))	2 (Herbicidal rate of 20% or more and less than 40%)	5 (Herbicidal rate of 90% or more (almost completely withered))	3 (Herbicidal rate of 40% or more and less than 70%)	5 (Herbicidal rate of 90% or more (almost completely withered))	5 (Herbicidal rate of 90% or more (almost completely withered))	1 (Herbicidal rate of 5% or more and less than 20%)	4 (Herbicidal rate of 70% or more and less than 90%)
CSc1ccc(-c2oc3ccc(C)cc3c2-c2c(O)c(C)nn(C)c2=O)cc1 [9-055]	5 (Herbicidal rate of 90% or more (almost completely withered))	5 (Herbicidal rate of 90% or more (almost completely withered))	5 (Herbicidal rate of 90% or more (almost completely withered))	5 (Herbicidal rate of 90% or more (almost completely withered))	4 (Herbicidal rate of 70% or more and less than 90%)	5 (Herbicidal rate of 90% or more (almost completely withered))	0 (Herbicidal rate of 5% or less (almost no effect))	5 (Herbicidal rate of 90% or more (almost completely withered))	5 (Herbicidal rate of 90% or more (almost completely withered))	4 (Herbicidal rate of 70% or more and less than 90%)	5 (Herbicidal rate of 90% or more (almost completely withered))	4 (Herbicidal rate of 70% or more and less than 90%)	4 (Herbicidal rate of 70% or more and less than 90%)	5 (Herbicidal rate of 90% or more (almost completely withered))	3 (Herbicidal rate of 40% or more and less than 70%)	4 (Herbicidal rate of 70% or more and less than 90%)	0 (Herbicidal rate of 5% or less (almost no effect))	0 (Herbicidal rate of 5% or less (almost no effect))
CCSc1ccc(-c2oc3ccc(C)cc3c2-c2c(O)c(C)nn(C)c2=O)cc1 [9-057]	5 (Herbicidal rate of 90% or more (almost completely withered))	5 (Herbicidal rate of 90% or more (almost completely withered))	5 (Herbicidal rate of 90% or more (almost completely withered))	5 (Herbicidal rate of 90% or more (almost completely withered))	4 (Herbicidal rate of 70% or more and less than 90%)	5 (Herbicidal rate of 90% or more (almost completely withered))	3 (Herbicidal rate of 40% or more and less than 70%)	5 (Herbicidal rate of 90% or more (almost completely withered))	5 (Herbicidal rate of 90% or more (almost completely withered))	3 (Herbicidal rate of 40% or more and less than 70%)	5 (Herbicidal rate of 90% or more (almost completely withered))	3 (Herbicidal rate of 40% or more and less than 70%)	5 (Herbicidal rate of 90% or more (almost completely withered))	4 (Herbicidal rate of 70% or more and less than 90%)	5 (Herbicidal rate of 90% or more (almost completely withered))	5 (Herbicidal rate of 90% or more (almost completely withered))	5 (Herbicidal rate of 90% or more (almost completely withered))	0 (Herbicidal rate of 5% or less (almost no effect))
Cc1nn(C)c(=O)c(-c2c(-c3ccc(Cl)cc3)sc3cccc(F)c23)c1O [11-001]	5 (Herbicidal rate of 90% or more (almost completely withered))	5 (Herbicidal rate of 90% or more (almost completely withered))	3 (Herbicidal rate of 40% or more and less than 70%)	0 (Herbicidal rate of 5% or less (almost no effect))	5 (Herbicidal rate of 90% or more (almost completely withered))	3 (Herbicidal rate of 40% or more and less than 70%)	0 (Herbicidal rate of 5% or less (almost no effect))	0 (Herbicidal rate of 5% or less (almost no effect))	5 (Herbicidal rate of 90% or more (almost completely withered))	0 (Herbicidal rate of 5% or less (almost no effect))	5 (Herbicidal rate of 90% or more (almost completely withered))	0 (Herbicidal rate of 5% or less (almost no effect))	0 (Herbicidal rate of 5% or less (almost no effect))	2 (Herbicidal rate of 20% or more and less than 40%)	0 (Herbicidal rate of 5% or less (almost no effect))	0 (Herbicidal rate of 5% or less (almost no effect))	0 (Herbicidal rate of 5% or less (almost no effect))	0 (Herbicidal rate of 5% or less (almost no effect))
